Measurements from US20260091086A1, “POLYPEPTIDE COMBINATIONS AND USES THEREOF” (MEDIMMUNE LIMITED, priority 2024, published 2026).
Numbered stars: 1 amine (or outer) side, 2 acyl side, 3 side chain; on linkers, the order of the positions; unused ones are H or OH. Bridge positions count the residues as written; N and C are the ends. Square brackets hold non-standard residues; d marks the D form. Side chains are listed from the residue outwards. Ends that are not written are not given here. * marks the point of attachment. C18 diacid = O=C(O)CCCCCCCCCCCCCCCCC(=O)*; γGlu = O=C(O)[C@H](CCC(=O)[*:2])N[*:1]; αMeF = C[C@](N)(Cc1ccccc1)C(=O)O

T1: rat calcitonin receptor (Rattus norvegicus, UniProt P32214)
T1 construct: expressed in transfected cells; host or cells: HEK293
T1 sequence (P32214 25-516): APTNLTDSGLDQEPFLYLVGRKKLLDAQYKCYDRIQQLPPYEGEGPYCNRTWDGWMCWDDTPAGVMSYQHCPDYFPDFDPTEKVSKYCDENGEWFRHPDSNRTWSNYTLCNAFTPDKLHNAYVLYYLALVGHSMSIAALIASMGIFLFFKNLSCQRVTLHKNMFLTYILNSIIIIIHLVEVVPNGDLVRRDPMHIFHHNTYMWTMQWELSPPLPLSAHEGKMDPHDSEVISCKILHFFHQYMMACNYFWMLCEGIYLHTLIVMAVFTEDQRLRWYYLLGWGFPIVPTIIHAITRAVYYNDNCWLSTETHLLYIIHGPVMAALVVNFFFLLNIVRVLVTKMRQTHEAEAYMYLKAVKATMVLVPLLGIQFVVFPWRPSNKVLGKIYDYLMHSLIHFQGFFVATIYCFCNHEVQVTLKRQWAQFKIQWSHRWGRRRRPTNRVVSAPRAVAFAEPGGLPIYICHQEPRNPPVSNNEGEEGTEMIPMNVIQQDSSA

T2: rat amylin receptor (calcitonin receptor plus RAMP3) (rat, UniProt P32214 25-516; Q9JJ73 23-147)
T2 sequence (looked up) 1: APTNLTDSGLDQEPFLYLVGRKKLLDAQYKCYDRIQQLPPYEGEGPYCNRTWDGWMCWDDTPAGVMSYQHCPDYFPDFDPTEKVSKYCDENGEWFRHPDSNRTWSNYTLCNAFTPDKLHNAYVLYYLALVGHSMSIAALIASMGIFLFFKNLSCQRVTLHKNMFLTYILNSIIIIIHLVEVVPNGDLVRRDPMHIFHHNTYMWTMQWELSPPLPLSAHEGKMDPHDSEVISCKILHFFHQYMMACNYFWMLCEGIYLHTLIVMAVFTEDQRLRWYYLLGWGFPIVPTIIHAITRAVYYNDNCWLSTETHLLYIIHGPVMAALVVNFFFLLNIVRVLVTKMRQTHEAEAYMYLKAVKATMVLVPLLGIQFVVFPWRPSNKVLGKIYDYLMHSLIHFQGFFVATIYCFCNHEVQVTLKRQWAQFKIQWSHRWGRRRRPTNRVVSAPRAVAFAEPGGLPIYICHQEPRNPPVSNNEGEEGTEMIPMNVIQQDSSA
T2 sequence (looked up) 2: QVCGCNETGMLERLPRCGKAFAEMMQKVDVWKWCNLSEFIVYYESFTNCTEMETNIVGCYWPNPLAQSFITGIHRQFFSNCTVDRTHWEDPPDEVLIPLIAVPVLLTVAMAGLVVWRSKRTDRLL


How the values were obtained:
rat calcitonin receptor = target: T1, rat calcitonin receptor; test: Target engagement estimate (unbound Cmax / unbound in vitro potency), calcitonin receptor; conditions: DACRA 10 nmol/kg vs LAA 30 nmol/kg
Protocol: Target engagement was estimated in the following way for each compound. The maximum concentration (Cmax) after subcutaneous injection was measured in separate rat pharmacokinetic studies and was dose-adjusted to the tested dose levels when appropriate, assuming dose linearity. Plasma protein binding was determined in vitro using 3B Pharmaceutical's Escalate Equilibrium Shift Assay or an in-house Surface Plasmon Resonance (SPR) assay. Peptide in vitro potency was determined via HTRF CAMP accumulation assay using HEK293 cells recombinantly expressing the rat calcitonin receptor or rat amylin receptor (calcitonin receptor plus RAMP3) in saline buffer containing 0.1% bovine serum albumin. The in vitro potencies (IC50s) for amylin and calcitonin were adjusted to unbound values by taking into account the albumin concentration in the assay and fraction unbound data, according to an established method (Wan H and Bergström F (2007), High Throughput Screening of Drug-Protein Binding in Drug Discovery, Journal of Liquid Chromatography & Related Technologies, 30:5, 681-700; doi: 10.1080/10826070701190989). Finally, the target engagement was calculated as the unbound Cmax divided by the unbound IC50, both for amylin and calcitonin. […] Uncertainty of parameter estimates was determined by bootstrapping, sampling single measurements randomly with replacement within each experiment (N=500). […]

AMY3R/CTR [1] = test: Relative potency ratio, cAMP accumulation assays with 0.1% BSA, rat receptors; assay type: cell-based; conditions: 0.1% bovine serum albumin, n ≥ 5; potencies relative to pramlintide 100%
Protocol: Target engagement was estimated in the following way for each compound. The maximum concentration (Cmax) after subcutaneous injection was measured in separate rat pharmacokinetic studies and was dose-adjusted to the tested dose levels when appropriate, assuming dose linearity. Plasma protein binding was determined in vitro using 3B Pharmaceutical's Escalate Equilibrium Shift Assay or an in-house Surface Plasmon Resonance (SPR) assay. Peptide in vitro potency was determined via HTRF CAMP accumulation assay using HEK293 cells recombinantly expressing the rat calcitonin receptor or rat amylin receptor (calcitonin receptor plus RAMP3) in saline buffer containing 0.1% bovine serum albumin. The in vitro potencies (IC50s) for amylin and calcitonin were adjusted to unbound values by taking into account the albumin concentration in the assay and fraction unbound data, according to an established method (Wan H and Bergström F (2007), High Throughput Screening of Drug-Protein Binding in Drug Discovery, Journal of Liquid Chromatography & Related Technologies, 30:5, 681-700; doi: 10.1080/10826070701190989). Finally, the target engagement was calculated as the unbound Cmax divided by the unbound IC50, both for amylin and calcitonin. The Emax model was defined as aversion=E0+Emax×(ENG^h/(ENG^h+ED50^h)), where E0 is the baseline aversion, Emax is the maximum induced aversion, ENG is the receptor engagement, and h is the slope (Hill) parameter. Parameter estimation was performed according to a maximum likelihood approach with an additive error model, incorporating data from all compounds simultaneously. Uncertainty of parameter estimates was determined by bootstrapping, sampling single measurements randomly with replacement within each experiment (N=500). Numeric analyses were performed in MATLAB (R2023b; The MathWorks, Natick, MA). The aversion data are given as mean and standard error (N=9-11 per group). In this experiment, the LAA/SARA1 was that of SEQ ID NO: 11, SARA2 was eloralintide, DACRA1 was cagrilintide, and DACRA2 was petrelintide.

AMY3R/CTR [2] = test: Relative potency ratio, cAMP accumulation assays with 0.1% BSA, human receptors; assay type: cell-based; conditions: 0.1% bovine serum albumin, n ≥ 5; potencies relative to pramlintide 100%
[3] = test system: High-fat diet (DIO) fed rats; test: Example 9: 4-week LAA or DACRA monotherapy in DIO rats; assay type: in vivo, rat; conditions: for BW reduction compared to vehicle / reduction of cumulative food intake: 4 weeks; for proportion of body weight loss that was fat-mass specific: FIG. 8C
From the text: Study 1 Design: High-fat diet (DIO) fed rats were used to profile LAA or DACRA monotherapy to evaluate food intake, body weight-lowering and body composition effects in a 4-week study. In this experiment, the LAA was that of SEQ ID NO: 11 and the DACRA was cagrilintide.

[4] = target: T2, rat amylin receptor (calcitonin …); test: cell-based or functional assay
[5] = target: human amylin receptor 3 (hAMY3R; complex of hCTR and hRAMP3) (human, UniProt P30825 2-629; O60896 24-148, limits assumed); test: cell-based or functional assay
Sequence of human amylin receptor 3 (hAMY3R; complex of hCTR and hRAMP3) (P30825 2-629 limits assumed, chain 1 of 2): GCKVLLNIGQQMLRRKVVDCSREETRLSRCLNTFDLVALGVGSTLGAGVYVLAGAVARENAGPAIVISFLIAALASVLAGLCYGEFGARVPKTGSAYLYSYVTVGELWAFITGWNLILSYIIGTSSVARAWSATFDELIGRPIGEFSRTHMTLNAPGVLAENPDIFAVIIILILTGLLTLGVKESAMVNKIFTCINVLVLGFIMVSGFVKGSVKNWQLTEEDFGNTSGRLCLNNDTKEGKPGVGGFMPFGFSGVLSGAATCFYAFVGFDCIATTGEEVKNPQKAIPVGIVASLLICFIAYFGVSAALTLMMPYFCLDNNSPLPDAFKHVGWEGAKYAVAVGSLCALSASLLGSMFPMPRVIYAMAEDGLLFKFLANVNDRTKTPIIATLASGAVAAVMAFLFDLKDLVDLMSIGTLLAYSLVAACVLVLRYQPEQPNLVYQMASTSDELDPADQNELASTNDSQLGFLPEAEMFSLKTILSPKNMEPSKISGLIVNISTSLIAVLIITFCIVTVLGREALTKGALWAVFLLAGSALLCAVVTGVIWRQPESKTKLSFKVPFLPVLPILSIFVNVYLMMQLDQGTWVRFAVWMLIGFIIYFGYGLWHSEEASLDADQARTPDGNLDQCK
Sequence of human amylin receptor 3 (hAMY3R; complex of hCTR and hRAMP3) (O60896 24-148 limits assumed, chain 2 of 2): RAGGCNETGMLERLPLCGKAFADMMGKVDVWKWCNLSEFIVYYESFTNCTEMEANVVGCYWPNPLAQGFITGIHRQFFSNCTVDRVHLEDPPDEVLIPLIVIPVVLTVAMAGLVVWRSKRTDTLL

calcitonin engagement, fold more than LAA (rat calcitonin receptor) | Relative potency ratio (AMY3R/CTR), Rat (AMY3R/CTR [1]) | Relative potency ratio (AMY3R/CTR), Human (AMY3R/CTR [2]) | Relative potency ratio (AMY3R/CTR), Rat; cAMP accumulation assay, 0.1% BSA [4] [ratio] | Relative potency ratio (AMY3R/CTR), Human; cAMP accumulation assay, 0.1% BSA [5] [ratio] | Molecule | BW reduction compared to vehicle ([3]; 1 nmol/kg) [%] | reduction of cumulative food intake ([3]; 1 nmol/kg) | BW reduction compared to vehicle ([3]; 3 nmol/kg) [%] | reduction of cumulative food intake ([3]; 3 nmol/kg) | BW reduction compared to vehicle ([3]; 10 nmol/kg) [%] | reduction of cumulative food intake ([3]; 10 nmol/kg) | BW reduction compared to vehicle ([3]; 20 nmol/kg) [%] | reduction of cumulative food intake ([3]; 20 nmol/kg) | fat-mass loss ([3]; end of study, 10 nmol/kg) [g] | proportion of body weight loss that was fat-mass specific ([3]; end of study, 10 nmol/kg) [%] | proportion of body weight loss that was fat-mass specific ([3]; end of study, 20 nmol/kg) [%] | lean mass ([3]; end of study, FIG. 8B)
2-3 fold | 0.01 | 0.08 | – | – | cagrilintide [DACRA] | −3±0.6 | −7.1±2.1 % of vehicle | −5.3±1.1 | −16±2.5 % of vehicle | −8.8±1.4 | −23.9±3.5 % of vehicle | −11.6±0.9 | −23.7±1.1 % of vehicle | -15.5 ± 6.0 | 54 | 61 | Lean mass was preserved in the LAA groups, unlike in the DACRA groups
– | – | – | 1.6 | 0.9 | K([γGlu-γGlu-C18 diacid])CNTATCATQRLANFLRHSSNN[αMeF]GPILPPTEVGSNTY-NH2 (disulfide 2-7) [LAA/SARA 1 (lipidated pramlintide analogue of SEQ ID NO: 11)] | – | – | – | – | – | – | – | – | – | – | – | –
– | – | – | 1 | 1 | KCNTATCATQRLANFLVHSSNNFGPILPPTNVGSNTY-NH2 (disulfide 2-7) [Pramlintide] | – | – | – | – | – | – | – | – | – | – | – | –
